Measurements published in patent publication US20230061736A1, “GPR119 AGONISTS” (Kallyope, Inc., priority 2019, published 2023).
Like-named read-outs stand apart in the source and are kept apart here.

What was measured:
[1] = in rats; Bioorganic & Medicinal Chemistry Letters 27(5), 2017, 1124-1128 (Compound 17 in the reference); cited from earlier work
[2] = In vivo plasma levels in mice after oral gavage; set-up: species or system C57BL/6J mice; settings: mouse, 30 mpk oral gavage, 8 h post-dose
Description: Male C57BL/6J mice 10-12 weeks old were dosed with test article or vehicle [0.25% (w/v) methylcellulose, 5% (v/v) Polysorbate 80, and 0.02% (w/v) sodium lauryl sulfate in Hanks' Balanced Salt solution (all final concentrations)] by oral gavage at a volume of 10 mL/kg. Animals were euthanized with carbon dioxide 7-8 h post dose. Blood was collected for measurement of plasma concentrations of test article. Unbound exposure was calculated by multiplying the measured total exposure by the free fraction as assessed from plasma protein binding.
Plasma protein binding to isotonic phosphate buffer (PBS) containing 10% C57 BL/6 mouse plasma was determined using equilibrium dialysis of plasma spiked with test article (2 μM) against a dialysis buffer (100 mM sodium phosphate and 150 mM NaCl). At the end of the dialysis (4 hr), aliquots of the plasma and buffer were processed by protein precipitation for LC-MS/MS analysis to quantitate the test article.

[3] = molecular target: T1, human GPR119 (hGPR119) (Homo sapiens, UniProt Q8TDV5); test: cAMP accumulation assay (cAMP Gs dynamic HTRF kit); assay type: cell-based; settings: CHO-K1 cells stably expressing hGPR119, 4-parameter fit
T1 construct: expressed in transfected cells
T1 sequence (Q8TDV5 1-335): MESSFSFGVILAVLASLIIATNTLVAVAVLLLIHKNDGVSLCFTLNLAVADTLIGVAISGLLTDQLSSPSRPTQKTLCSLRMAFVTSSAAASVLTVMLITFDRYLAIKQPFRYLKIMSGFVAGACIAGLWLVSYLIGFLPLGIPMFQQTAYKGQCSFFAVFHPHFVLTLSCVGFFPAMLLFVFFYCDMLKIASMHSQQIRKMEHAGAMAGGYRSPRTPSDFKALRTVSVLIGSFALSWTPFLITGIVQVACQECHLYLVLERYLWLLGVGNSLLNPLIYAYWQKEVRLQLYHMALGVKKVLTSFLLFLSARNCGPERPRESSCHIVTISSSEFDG
Outline: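 Read-out is HTRF 665/620 nm ratio after 1 h detection at ambient temperature, converted to % activity against positive and negative controls, EC50 and Max activity by 4-parameter fit. Compounds were titrated onto ~10,000 thawed hGPR119-CHO-K1 cells/well for 60 min at 37° C/5% CO2.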

[4] = In vivo plasma levels in mice after oral gavage; set-up: species or system C57BL/6J mice; settings: mouse, 30 mpk oral gavage, 2 h post-dose
[5] = Oral bioavailability in mice; settings: mouse, in vivo; C57BL/6 mice; IV 1 mg/kg, PO 30 mg/kg
Description: Compounds were dosed IV at 1 mg/kg as a formulation of 0.5 mg/mL in 5% DMSO+30% PEG400+65% water and PO at 30 mg/kg as a formulation of 6 mg/mL in 0.25% methylcellulose+5% Tween 80+0.02% SDS in water (Compound 42) or 0.5% methylcellulose+0.5% Tween 80 in water (Compound 83).

[6] = male, C57BL/6J, plasma, 30 mg/kg, read-out: Exposure Total (plasma)
[7] = total exposure x free fraction from plasma protein binding

SMILES | bioavailability [1] [%] | concentration at 8 h [2, 6] [nM] | Exposure unbound (plasma) [2, 7] [nM] | Emax ([3]; 1 h, % activity normalized to Max/Min controls) [%] | EC50 ([3]; cAMP accumulation) [nM] | concentration at 2 h [4, 6] [nM] | Exposure unbound (plasma) [4, 7] [nM] | bioavailability [5] [%]
COCc1cnc(N2CCC([C@H]3C[C@H]3CCOc3cc(F)c(CC(=O)N4CCC4)c(F)c3)CC2)nc1 [1-(azetidin-1-yl)-2-(2,6-difluoro-4-(2-((1S,2R)-2-(1-(5-(methoxymethyl)pyrimidin-2-yl)piperidin-4-yl)cyclopropyl)ethoxy)phenyl)ethan-1-one] | 80 |  |  |  |  |  |  | 
O=C(Cc1ccc(OCCCC2CCN(c3ncc(Cl)cn3)CC2)cc1F)N1CC(CNC[C@H](O)[C@@H](O)[C@H](O)[C@H](O)CO)C1 [Example 42, 2-[4-[3-[1-(5-chloropyrimidin-2-yl)-4-piperidyl]propoxy]-2-fluoro-phenyl]-1-[3-[[[(2S,3R,4R,5R)-2,3,4,5,6-pentahydroxyhexyl]amino]methyl]azetidin-1-yl]ethanone] |  | 369 | 1.1 | 100 to 130 | 100 to 1000 | 806 | 2.4 | 2.4
